The test system of the test is Plasmodium berghei. Description: Luciferase/luciferin-expressing antifolate-resistant parasites were used to infect a culture of HepG2 cells that were pre-incubated with compounds. Infected hepatocytes emit light due to the luciferase reaction. Assay results are presented as the percent inhibition of light emission compared to control. […]. Format: functional. The following applies: sporozoite; for IC90: read-out: LUCIFERASE INFECTION ASSAY - IC90.

These results are taken from ChEMBL document CHEMBL4483862, “Open-source discovery of chemical leads for next-generation chemoprotective antimalarials” (2018).

In the case of `O=C(Nc1ccccc1C(=O)Nc1nnc(C(F)(F)F)s1)c1ccccc1`, the IC90 was 1.89 µM. Where the note is “HEPG2TOX_HILL_SLOPE 6.74, HEPG2TOX_R_SQUARED 0.749, PBLUC_HILL_SLOPE 2.08, PBLUC_R_SQUARED 0.449, read-out: LUCIFERASE INFECTION ASSAY - IC50”, the IC50 is 0.658 µM.
With `O=c1c(Cl)c2oc3ccccc3nc-2c2ccccc12`, the IC90 is above 11.7 µM. The IC50 (HEPG2TOX_HILL_SLOPE 6.69, HEPG2TOX_R_SQUARED 0.668, PBLUC_HILL_SLOPE 2.65, PBLUC_R_SQUARED 0.745, read-out: LUCIFERASE INFECTION ASSAY - IC50) was 5.79 µM.
In the case of `NC(Cc1ccc(Cl)cc1)c1csc(Nc2ncccn2)n1` (stereo not given), the 90% effect concentration (IC90) worked out at 5.31 µM. Moreover, the IC50 (HEPG2TOX_HILL_SLOPE 6.68, HEPG2TOX_R_SQUARED 0.347, PBLUC_HILL_SLOPE 658, PBLUC_R_SQUARED 0.395, read-out: LUCIFERASE INFECTION ASSAY - IC50) came out at 5.29 µM.
Consider `O=C(Nc1ccccc1)c1cc2sccc2s1`, for which the IC90 is above 12.7 µM. The IC50 (HEPG2TOX_HILL_SLOPE 6.8, HEPG2TOX_R_SQUARED 0.21, read-out: LUCIFERASE INFECTION ASSAY - IC50) is above 12.7 µM.
As to `CSc1sc(C(=O)NN=C(C)C)c2c1C(O)CCC2` (stereo not given), the IC90 is above 11.1 µM. The IC50 (HEPG2TOX_HILL_SLOPE 6.67, HEPG2TOX_R_SQUARED 0.767, PBLUC_HILL_SLOPE 1.8, PBLUC_R_SQUARED 0.584, read-out: LUCIFERASE INFECTION ASSAY - IC50) was found to be 10.2 µM.
`CC(C)c1cccc(-c2nc3ccnc(NCc4ccc(N(C)C)cc4)c3[nH]2)c1`: the 90% effect concentration (IC90) is above 10 µM. Also, under “HEPG2TOX_HILL_SLOPE 6.72, HEPG2TOX_R_SQUARED 0.795, PBLUC_HILL_SLOPE 11.9, PBLUC_R_SQUARED 0.428, read-out: LUCIFERASE INFECTION ASSAY - IC50”, the IC50 came out at 8.78 µM.
Turning to `CCOc1cc(/C=C/c2nc3cc(C)c(C)cc3s2)ccc1O`, the 90% effect concentration (IC90) was above 10 µM. The IC50 (HEPG2TOX_HILL_SLOPE 6.63, HEPG2TOX_R_SQUARED 0.787, PBLUC_HILL_SLOPE 3.12, PBLUC_R_SQUARED 0.499, read-out: LUCIFERASE INFECTION ASSAY - IC50) was found to be 6.52 µM.
Take `CCCCNC(=O)c1c(NC(=O)C(C)Oc2ccccc2)nc2ccc(C)cn12` (stereo not given): the IC90 is above 8.37 µM. In addition, under “HEPG2TOX_HILL_SLOPE 6.71, HEPG2TOX_R_SQUARED 0.423, PBLUC_HILL_SLOPE 12, PBLUC_R_SQUARED 0.638, read-out: LUCIFERASE INFECTION ASSAY - IC50”, the IC50 was 7.31 µM.
Take `O=S(=O)(NC1CCN(c2nn3cc(-c4ccccc4)nc3s2)CC1)c1cccs1`: the IC90 stood at 3.14 µM. Further, the IC50 (HEPG2TOX_HILL_SLOPE 6.79, HEPG2TOX_R_SQUARED 0.144, PBLUC_HILL_SLOPE 1.24, PBLUC_R_SQUARED 0.735, read-out: LUCIFERASE INFECTION ASSAY - IC50) stood at 0.534 µM.
As to `COc1ccc(CCNc2nc(C)nc3sc(-c4ccccc4)cc23)cc1OC`, the IC90 was above 10 µM. The IC50 (HEPG2TOX_HILL_SLOPE 6.76, HEPG2TOX_R_SQUARED 0.162, read-out: LUCIFERASE INFECTION ASSAY - IC50) is above 10 µM.
`O=C(Nc1ccc(OC(F)(F)F)cc1)Nc1ccc(Sc2ccc(Cl)cc2)nc1`: the IC90 was above 7.5 µM. Further, for the setting “HEPG2TOX_HILL_SLOPE 6.6, HEPG2TOX_R_SQUARED 0.793, PBLUC_HILL_SLOPE 3.54, PBLUC_R_SQUARED 0.066, read-out: LUCIFERASE INFECTION ASSAY - IC50”, the IC50 was 6.05 µM.
`O=C(Cc1cn2ccsc2n1)NNC(=O)c1cccnc1Nc1cccc(C(F)(F)F)c1`: the IC90 was 7.63 µM. The IC50 (HEPG2TOX_HILL_SLOPE 6.77, HEPG2TOX_R_SQUARED 0.513, PBLUC_HILL_SLOPE 2.49, PBLUC_R_SQUARED 0.696, read-out: LUCIFERASE INFECTION ASSAY - IC50) was found to be 3.16 µM.
`COC(=O)c1ccc(C(=O)Nc2nc3ccc(C)cn3c2C(=O)NC2CCCCC2)cc1`: the IC90 was above 7.6 µM. Moreover, the IC50 (HEPG2TOX_HILL_SLOPE 6.71, HEPG2TOX_R_SQUARED 0.117, PBLUC_HILL_SLOPE 12.8, PBLUC_R_SQUARED 0.0177, read-out: LUCIFERASE INFECTION ASSAY - IC50) was 7.03 µM.
As to `Cc1cccc(N2CCN(C(=O)c3ccccc3SCC(=O)Nc3ccc(F)cc3)CC2)c1C`, the IC90 was above 10 µM. Further, where the note is “HEPG2TOX_HILL_SLOPE 6.74, HEPG2TOX_R_SQUARED 0.191, PBLUC_HILL_SLOPE 2.5, PBLUC_R_SQUARED 0.41, read-out: LUCIFERASE INFECTION ASSAY - IC50”, the IC50 was 5.48 µM.
Regarding `Cn1cc(CN2CCc3c(c(C(=O)NCc4nccs4)nn3Cc3ccccc3)C2)c2ccccc21`, the IC90 was 5.73 µM. Besides, the IC50 (HEPG2TOX_HILL_SLOPE 6.66, HEPG2TOX_R_SQUARED 0.254, PBLUC_HILL_SLOPE 4.38, PBLUC_R_SQUARED 0.819, read-out: LUCIFERASE INFECTION ASSAY - IC50) is 3.47 µM.
`Fc1ccc2c(c1)/C(=N\Nc1nc3ccccc3[nH]1)CCS2`: the IC90 is above 10 µM. Also, the IC50 (HEPG2TOX_HILL_SLOPE 6.62, HEPG2TOX_R_SQUARED 0.538, PBLUC_HILL_SLOPE 9.53, PBLUC_R_SQUARED 0.0234, read-out: LUCIFERASE INFECTION ASSAY - IC50) amounted to 8.49 µM.
For the compound `Cn1ccnc1S/C(=C/C=C(C#N)C#N)c1ccc(Cl)cc1`, the IC90 was above 10.1 µM. Further, the IC50 (HEPG2TOX_HILL_SLOPE 6.6, HEPG2TOX_R_SQUARED 0.647, PBLUC_HILL_SLOPE 3.43, PBLUC_R_SQUARED 0.702, read-out: LUCIFERASE INFECTION ASSAY - IC50) amounted to 5.57 µM.
On to `COc1ccccc1C(CCNCc1ccc(F)cc1)c1ccco1` (stereo not given), for which the IC90 came to 1.66 µM. Besides, the IC50 (HEPG2TOX_HILL_SLOPE 6.69, HEPG2TOX_R_SQUARED 0.485, PBLUC_HILL_SLOPE 6.64, PBLUC_R_SQUARED 0.691, read-out: LUCIFERASE INFECTION ASSAY - IC50) is 1.19 µM.
Turning to `O=c1c(Cl)cc(C(F)(F)F)cn1Cc1csc(Nc2ccccc2)n1`, the IC90 was above 10 µM. Also, the IC50 (HEPG2TOX_HILL_SLOPE 6.73, HEPG2TOX_R_SQUARED 0.639, PBLUC_HILL_SLOPE 3.67, PBLUC_R_SQUARED 0.234, read-out: LUCIFERASE INFECTION ASSAY - IC50) stood at 8.88 µM.
Turning to `COc1ccc(Nc2cc3c(cn2)cc(-c2ccc(C(=O)N(C)C)cc2)n3Cc2ccccc2)cc1`, the IC90 is 9.34 µM. For the same compound, the IC50 (HEPG2TOX_HILL_SLOPE 6.65, HEPG2TOX_R_SQUARED 0.257, PBLUC_HILL_SLOPE 26.3, PBLUC_R_SQUARED 0.641, read-out: LUCIFERASE INFECTION ASSAY - IC50) was determined as 8.59 µM.
Consider `O=C(CC1CCCC1)N1CCc2nc(NCc3cccc(Oc4ccccc4)c3)ncc2C1`, for which the IC90 is above 7.46 µM. Also, the IC50 (HEPG2TOX_HILL_SLOPE 6.79, HEPG2TOX_R_SQUARED 0.796, PBLUC_HILL_SLOPE 75.4, PBLUC_R_SQUARED 0.123, read-out: LUCIFERASE INFECTION ASSAY - IC50) was found to be 7.45 µM.
Consider `CC(C)(C)OC(=O)N1CCc2nc(NC(=O)c3ccc4nc[nH]c4c3)sc2C1`, for which the IC90 was above 10 µM. For the setting “HEPG2TOX_HILL_SLOPE 6.67, HEPG2TOX_R_SQUARED 0.917, read-out: LUCIFERASE INFECTION ASSAY - IC50”, the IC50 was above 10 µM.
Turning to `CNc1nc2cnc(Nc3cccc(OC(F)(F)F)c3)cc2n1CCOC`, the IC90 was above 10 µM. Further, the IC50 (HEPG2TOX_HILL_SLOPE 6.78, HEPG2TOX_R_SQUARED 0.0669, read-out: LUCIFERASE INFECTION ASSAY - IC50) is above 10 µM.
For `CSc1nc2c(c(=O)n(C)c(=O)n2C)n1Cc1cccc(C(F)(F)F)c1`, the IC90 is above 8.59 µM. Also, the IC50 (HEPG2TOX_HILL_SLOPE 6.71, HEPG2TOX_R_SQUARED 0.561, read-out: LUCIFERASE INFECTION ASSAY - IC50) is above 8.59 µM.
For `CCN(CC(O)COc1ccccc1-c1ccccc1)C1CCCCC1` (stereo not given), the IC90 is 9.13 µM. The IC50 (HEPG2TOX_HILL_SLOPE 6.72, HEPG2TOX_R_SQUARED 0.0493, PBLUC_HILL_SLOPE 495, PBLUC_R_SQUARED 0.169, read-out: LUCIFERASE INFECTION ASSAY - IC50) came out at 9.09 µM.
As for `COc1ccccc1NS(=O)(=O)c1ccc2c(c1)N=Cc1c(C)nn(-c3ccc(Cl)cc3)c1O2`, the IC90 was above 10 µM. The concentration for half-maximal inhibition (IC50) (HEPG2TOX_HILL_SLOPE 6.8, HEPG2TOX_R_SQUARED 0.772, PBLUC_HILL_SLOPE 15.5, PBLUC_R_SQUARED 0.126, read-out: LUCIFERASE INFECTION ASSAY - IC50) turned out to be 9.36 µM.
For `Cc1cc2cc(Nc3ccc(S(=O)(=O)NC(C)(C)C)cc3[N+](=O)[O-])ccc2[nH]1`, the IC90 is above 10 µM. Also, the IC50 (HEPG2TOX_HILL_SLOPE 6.66, HEPG2TOX_R_SQUARED 0.674, PBLUC_HILL_SLOPE 2.21, PBLUC_R_SQUARED 0.655, read-out: LUCIFERASE INFECTION ASSAY - IC50) was 4.89 µM.
With `O=[N+]([O-])c1ccc(N2CCN(c3ncccc3C(F)(F)F)CC2)nc1`, the IC90 was above 9.34 µM. In addition, the IC50 (HEPG2TOX_HILL_SLOPE 6.77, HEPG2TOX_R_SQUARED 0.465, read-out: LUCIFERASE INFECTION ASSAY - IC50) is above 9.34 µM.
As to `Cc1cccc(OCCNC(=O)c2cc(S(=O)(=O)N3CCOCC3)ccc2N2CCOCC2)c1`, the IC90 is above 10 µM. Further, the half-maximal inhibitory concentration (IC50) (HEPG2TOX_HILL_SLOPE 6.77, HEPG2TOX_R_SQUARED 0.742, read-out: LUCIFERASE INFECTION ASSAY - IC50) is above 10 µM.
In the case of `c1ccc(C(CCNCc2ccco2)c2ccco2)cc1` (stereo not given), the IC90 was above 11.7 µM. Besides, the IC50 (HEPG2TOX_HILL_SLOPE 6.65, HEPG2TOX_R_SQUARED 0.638, PBLUC_HILL_SLOPE 2.47, PBLUC_R_SQUARED 0.734, read-out: LUCIFERASE INFECTION ASSAY - IC50) came out at 4.89 µM.
